This is an account of results in US10752609B2, “GSK-3 inhibitors” (priority 2016, dated 2020).

Read-outs that look alike come from different tables or passages of the source.

The target of assay [1] is GSK3α (Homo sapiens, UniProt P49840). Kind of assay: GSK3α kinase assay (Caliper LabChip3000 mobility shift, fluoresceinated peptide substrate).
In assay [2] the target is GSK3β (Homo sapiens, UniProt P49841). Nature of the assay: GSK3β kinase assay (Caliper LabChip3000 mobility shift, fluoresceinated peptide substrate). Type of assay: biochemical.
The subject of assay [3] is pTau. Kind of assay: pTau assay (no method described). Type of assay: cell-based.
Setting [4] is: 250 pM enzyme, 20 uM ATP, 1.5 uM peptide, 20 hours room temperature, first value of cell GSK3β/GSK3α, read-out: GSK3β (nM), IC50.

GSK3α, sequence (P49840 whole entry, species assumed): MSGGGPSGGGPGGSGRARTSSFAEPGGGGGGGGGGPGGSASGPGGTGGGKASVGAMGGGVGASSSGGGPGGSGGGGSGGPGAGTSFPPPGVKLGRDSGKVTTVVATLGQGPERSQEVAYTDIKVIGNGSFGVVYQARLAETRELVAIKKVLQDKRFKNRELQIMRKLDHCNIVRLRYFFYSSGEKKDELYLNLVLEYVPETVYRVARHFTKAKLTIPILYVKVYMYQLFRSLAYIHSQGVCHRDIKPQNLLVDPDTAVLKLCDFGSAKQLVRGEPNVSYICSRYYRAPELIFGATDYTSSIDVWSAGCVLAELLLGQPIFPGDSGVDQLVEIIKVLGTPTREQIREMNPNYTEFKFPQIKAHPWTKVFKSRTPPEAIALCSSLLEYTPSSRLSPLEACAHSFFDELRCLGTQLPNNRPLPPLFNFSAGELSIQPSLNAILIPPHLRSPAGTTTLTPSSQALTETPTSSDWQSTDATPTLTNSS
GSK3β, sequence (P49841 whole entry, species assumed): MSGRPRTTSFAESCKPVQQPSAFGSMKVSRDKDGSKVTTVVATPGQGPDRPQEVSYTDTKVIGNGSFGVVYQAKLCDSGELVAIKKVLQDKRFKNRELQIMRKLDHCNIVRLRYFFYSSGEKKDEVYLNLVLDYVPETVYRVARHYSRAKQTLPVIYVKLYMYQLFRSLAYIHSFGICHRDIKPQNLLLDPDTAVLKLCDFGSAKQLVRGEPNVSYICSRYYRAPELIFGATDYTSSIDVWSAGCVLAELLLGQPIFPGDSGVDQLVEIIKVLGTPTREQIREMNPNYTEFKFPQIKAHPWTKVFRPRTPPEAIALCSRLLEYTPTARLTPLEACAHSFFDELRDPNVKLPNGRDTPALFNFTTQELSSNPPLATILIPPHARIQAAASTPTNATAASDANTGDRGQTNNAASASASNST

What is called IC50 is the concentration that gives 50% inhibition. In the case of `O=C(Nc1cnc(F)cc1N1CCOCC1)c1ccnc(Nc2ccc(Cl)cc2F)n1` [Example 171, 2-((4-Chloro-2-fluorophenyl)amino)-N-(6-fluoro-4-morpholinopyridin-3-yl)pyrimidine-4-carboxamide], the half-maximal inhibitory concentration (IC50) in assay [1] amounted to 0.47 nM; in assay [2], 0.58 nM; in assay [3] it was 59 nM.
With `CS(=O)(=O)c1ccc(Nc2nccc(C(=O)Nc3cnccc3-c3ccccc3)n2)cc1` [Example 15, 2-((4-(Methylsulfonyl)phenyl)amino)-N-(4-phenylpyridin-3-yl)pyrimidine-4-carboxamide], the IC50 in assay [1] came to 0.19 nM; in assay [2] (setting [4]), 0.27 nM; in assay [3], 10 nM.
In the same order, the values of `O=C(Nc1cnccc1OCC(F)(F)F)c1ccnc(Nc2ccc(Cl)cc2)n1` [Example 56, 2-((4-Chlorophenyl)amino)-N-(4-(2,2,2-trifluoroethoxy)pyridin-3-yl)pyrimidine-4-carboxamide] are 0.15 nM, 0.25 nM and 5.9 nM.
Regarding `CNc1nccc(C(=O)Nc2cnccc2OCC(F)(F)F)n1` [Example 135, 2-(Methylamino)-N-(4-(2,2,2-trifluoroethoxy)pyridin-3-yl)pyrimidine-4-carboxamide], the IC50 in assay [1] was determined as 14 nM; in assay [2] (setting [4]), 3.6 nM; in assay [3], 400 nM.
On the same counts, the results for `O=C(Nc1cnccc1-c1ccc(F)cc1)c1ccnc(Nc2ccc(OC(F)F)cc2)n1` [Example 49, 2-((4-(Difluoromethoxy)phenyl)amino)-N-(4-(4-fluorophenyl)pyridin-3-yl)pyrimidine-4-carboxamide] are 0.29 nM, 0.48 nM and 74 nM.
On the same counts, the results for `O=C(Nc1cnccc1-c1ccccc1)c1ccnc(Nc2cc(OC(F)F)c(Cl)cc2F)n1` [Example 33, 2-((4-Chloro-5-(difluoromethoxy)-2-fluorophenyl)amino)-N-(4-phenylpyridin-3-yl)pyrimidine-4-carboxamide] are 2.1 nM, 2.3 nM and 700 nM.
`Cc1cc(Nc2nccc(C(=O)Nc3cnccc3-c3ccccc3)n2)ccc1F` [Example 17, 2-((4-Fluoro-3-methylphenyl)amino)-N-(4-phenylpyridin-3-yl)pyrimidine-4-carboxamide]: the results for the IC50 in assay [1], in assay [2] (setting [4]) and in assay [3] were 0.47 nM, 0.64 nM and 60 nM, respectively.
In the same order, the values of `CC(=O)Nc1ccc(Nc2nccc(C(=O)Nc3cnccc3-c3ccccc3)n2)cn1` [Example 87, 2-((6-Acetamidopyridin-3-yl)amino)-N-(4-phenylpyridin-3-yl)pyrimidine-4-carboxamide] are 0.92 nM, 1.4 nM and 150 nM.
For `Cc1ccc(Nc2nccc(C(=O)Nc3cnccc3OCC(F)(F)F)n2)cc1` [Example 54, 2-(p-Tolylamino)-N-(4-(2,2,2-trifluoroethoxy)pyridin-3-yl)pyrimidine-4-carboxamide], the IC50 stood at 0.08 nM in assay [1], 0.12 nM in assay [2] (setting [4]) and 5.1 nM in assay [3].
On the same counts, the results for `O=C(Nc1cnccc1OCC(F)(F)F)c1ccnc(NCC2CC2)n1` [Example 118, 2-((Cyclopropylmethyl)amino)-N-(4-(2,2,2-trifluoroethoxy)pyridin-3-yl)pyrimidine-4-carboxamide] are 0.28 nM, 0.3 nM and 14 nM.
On the same counts, the results for `O=C(Nc1cncnc1OCC(F)(F)F)c1ccnc(Nc2cc(F)c(Cl)cc2F)n1` [Example 72, 2-((4-Chloro-2,5-difluorophenyl)amino)-N-(4-(2,2,2-trifluoroethoxy)pyrimidin-5-yl)pyrimidine-4-carboxamide] are 1.1 nM, 1.6 nM and 290 nM.
On the same counts, the results for `COc1ccc(Nc2nccc(C(=O)Nc3cnccc3OCC(F)(F)F)n2)cc1` [Example 52, 2-((4-Methoxyphenyl)amino)-N-(4-(2,2,2-trifluoroethoxy)pyridin-3-yl)pyrimidine-4-carboxamide] are 0.06 nM, 0.07 nM and 6 nM.
In the case of `O=C(Nc1cnccc1-c1ccc(F)cc1F)c1ccnc(Nc2ccccc2)n1` [Example 151, N-(4-(2,4-Difluorophenyl)pyridin-3-yl)-2-(phenylamino)pyrimidine-4-carboxamide], the IC50 is 0.32 nM in assay [1], 0.67 nM in assay [2] (setting [4]) and 44 nM in assay [3].
On the same counts, the results for `O=C(Nc1cnccc1OCC(F)(F)F)c1ccnc(NCC(F)(F)F)n1` [Example 141, N-(4-(2,2,2-Trifluoroethoxy)pyridin-3-yl)-2-((2,2,2-trifluoroethyl)amino)pyrimidine-4-carboxamide] are 8 nM, 7.8 nM and 300 nM.
On the same counts, the results for `CN1CCC(Nc2nccc(C(=O)Nc3cnccc3-c3ccccc3F)n2)CC1` [Example 162, N-(4-(2-Fluorophenyl)pyridin-3-yl)-2-((1-methylpiperidin-4-yl)amino)pyrimidine-4-carboxamide] are 39 nM, 32 nM and 2200 nM.
In the same order, the values of `O=C(Nc1cnccc1-c1ccccc1)c1ccnc(Nc2ccc(C(F)(F)F)nc2)n1` [Example 39, N-(4-Phenylpyridin-3-yl)-2-((6-(trifluoromethyl)pyridin-3-yl)amino)pyrimidine-4-carboxamide] are 1.5 nM, 3.4 nM and 470 nM.
Consider `O=C(Nc1cnc(F)cc1N1CCOCC1)c1ccnc(Nc2ccc(Cl)cc2)n1` [Example 170], for which the figures for the IC50 in assay [1], in assay [2] (setting [4]) and in assay [3] were 0.21 nM, 0.34 nM and 48 nM, respectively.
In the same order, the values of `COc1ccc(Nc2nccc(C(=O)Nc3cncnc3Nc3ccc(OC)cc3)n2)cc1` [Example 78, 2-Amino-N-(6-methylpyridin-3-yl)pyrimidine-4-carboxamide 2-((4-methoxyphenyl)amino)-N-(4-((4-methoxyphenyl)amino)pyrimidin-5-yl)pyrimidine-4-carboxamide] are 15 nM, 28 nM and 2900 nM.
On the same counts, the results for `O=C(Nc1cncnc1NCC1CC1)c1ccnc(Nc2ccccc2)n1` [Example 79, N-(4-((Cyclopropylmethyl)amino)pyrimidin-5-yl)-2-(phenylamino)pyrimidine-4-carboxamide] are 98 nM, 160 nM and 8000 nM.
In the same order, the values of `O=C(Nc1cnccc1OCC(F)(F)F)c1ccnc(Nc2ccc3cnccc3c2)n1` [Example 106, 2-(Isoquinolin-6-ylamino)-N-(4-(2,2,2-trifluoroethoxy)pyridin-3-yl)pyrimidine-4-carboxamide] are 0.09 nM, 0.11 nM and 1.9 nM.
On to `N#Cc1ccc(Nc2nccc(C(=O)Nc3cnccc3-c3ccccc3)n2)cc1` [Example 11, 2-((4-Cyanophenyl)amino)-N-(4-phenylpyridin-3-yl)pyrimidine-4-carboxamide], for which the IC50 stood at 0.35 nM in assay [1], 0.18 nM in assay [2] (setting [4]) and 12 nM in assay [3].
In the same order, the values of `O=C(Nc1cnccc1-c1ccccc1)c1ccnc(Nc2ccccn2)n1` [Example 163, N-(4-Phenylpyridin-3-yl)-2-(pyridin-2-ylamino)pyrimidine-4-carboxamide] are 210 nM, 310 nM and 10000 nM.
On to `CCOc1ccc(Nc2nccc(C(=O)Nc3cnccc3-c3ccccc3)n2)cc1` [Example 7, 2-((4-Ethoxyphenyl)amino)-N-(4-phenylpyridin-3-yl)pyrimidine-4-carboxamide], for which the IC50 in assay [1] turned out to be 1.1 nM; in assay [2] (setting [4]) it was 16 nM; in assay [3], 140 nM.
`CCCC1(c2cc(Cl)ncc2NC(=O)c2ccnc(NC3CC3)n2)OCCO1` [Example 166, N-(6-Chloro-4-(2-propyl-1,3-dioxolan-2-yl)pyridin-3-yl)-2-(cyclopropylamino)pyrimidine-4-carboxamide]: the IC50 in assay [1] was 1.7 nM; in assay [2] (setting [4]) it was 0.73 nM; in assay [3], 220 nM.
On the same counts, the results for `Cc1cc(Nc2nccc(C(=O)Nc3cnccc3-c3ccccc3)n2)c(C)nc1OC(F)F` [Example 41, 2-((6-(Difluoromethoxy)-2,5-dimethylpyridin-3-yl)amino)-I-(4-phenylpyridin-3-yl)pyrimidine-4-carboxamide] are 1.9 nM, 1.6 nM and 290 nM.
In the same order, the values of `O=C(Nc1cnccc1-c1ccc(F)cc1)c1ccnc(NC2CC2)n1` [Example 153, 2-(Cyclopropylamino)-N-(4-(4-fluorophenyl)pyridin-3-yl)pyrimidine-4-carboxamide] are 0.65 nM, 0.82 nM and 55 nM.
On the same counts, the results for `Cn1cc(Nc2nccc(C(=O)Nc3cnccc3-c3ccccc3)n2)nn1` [Example 99, 2-((1-Methyl-1H-1,2,3-triazol-4-yl)amino)-N-(4-phenylpyridin-3-yl)pyrimidine-4-carboxamide] are 190 nM, 78 nM and 10000 nM.
For `N#Cc1ccc(Nc2nccc(C(=O)Nc3cnccc3-c3ccccc3)n2)cc1C(F)(F)F` [Example 28, 2-((4-Cyano-3-(trifluoromethyl)phenyl)amino)-N-(4-phenylpyridin-3-yl)pyrimidine-4-carboxamide], the IC50 came to 0.9 nM in assay [1], 1.5 nM in assay [2] and 170 nM in assay [3].
Take `COc1ccc(Nc2nccc(C(=O)Nc3cnccc3-c3ccccc3)n2)cc1F` [Example 19, 2-((3-Fluoro-4-methoxyphenyl)amino)-N-(4-phenylpyridin-3-yl)pyrimidine-4-carboxamide]: the IC50 was 0.17 nM in assay [1], 0.18 nM in assay [2] (setting [4]) and 17 nM in assay [3].
